# US20260198495A1, “BINARY INSECTICIDE COMPOSITION AND USE THEREOF” (SHENYANG SINOCHEM AGROCHEMICALS R & D CO., LTD., priority 2022, published 2026)
# Tests used:
# Format in all cases: in vivo
# [1] = tested on: 3rd-instar larvae of Pyrausta nubilalis Hubern; test: Synergism assay (Bliss) of I-72 + abamectin, spinosad, spinetoram, emamectin benzoate, Example 6, Table 6; conditions: Ostrinia nubilalis, 72 h, read-out: Mortality rate (%)
# Description: Test subject: 3rd-instar larvae of Pyrausta nubilalis Hubern, a sensitive strain reared indoors.
# Test conditions: temperature: 24-26° C., humidity: RH 60%, and illumination: L:D=14:10
# Preparation method: the test pesticides were accurately weighed respectively with an electronic analytical balance. After the two technical materials were respectively added into an appropriate amount of solvent and completely dissolved, the stock solution of the required concentration was prepared with water containing 0.1% Tween 80. The stock solutions of the two active ingredients were mixed in a certain ratio to prepare a mixed solution, which was then diluted respectively into a series of pesticide solutions with a certain concentration gradient according to the experimental design dosage.
# Experimental method: the artificial diet-pesticide film method was adopted. A standard clean 24-well culture plate was selected. 1 ml of artificial diet was added to each well. After the diet cooled and solidified, a quantitative amount of a pesticide solution was added to the culture plate using a continuous sampler, and then it was air-dried naturally in the shade. The standard test insects were introduced, with 1 insect in each well, a total of 48 insects. The treated test insects were placed in an observation room under certain conditions. The reaction of the test insects was regularly observed, and the number of dead and live insects was investigated 72 h later.
# The evaluation method adopted was the Bliss method. This method is applicable to the qualitative screening of insecticidal compositions. According to the concept of independent joint action he proposed, Bliss believes that the theoretical mortality rate P when insecticides are used in combination can be calculated by the following formula: […]
# Pm is the mortality rate (%) of the target when the first active ingredient is at a concentration of m; and Pn is the mortality rate (%) of the target when the second active ingredient is at a concentration of n.
# If the actual mortality rate of the target after the two active ingredients are mixed at a certain concentration is greater than theoretical mortality rate P, it is determined that the two active ingredients have a synergistic effect when used in combination at the set concentration, and otherwise, they have an antagonistic effect.
# [2] = tested on: adult Tetranychus cinnabarinus (Boisduval); test: Joint toxicity of I-72 + fenpropathrin, Example 39, Table 39; conditions: A = compound I-72, B = fenpropathrin, potted-seedling spraying, 72 hours, read-out: LC50
# Description: Test target: adult Tetranychus cinnabarinus (Boisduval), a sensitive strain reared indoors.
# (§1) Preparation of the pesticide solution: according to different test requirements, the test samples were accurately weighed respectively with an electronic analytical balance. The technical pesticides were dissolved in acetone, and then diluted with 0.1% Tween 80 water into a series of pesticide solutions with a certain concentration gradient according to the experimental design dosage.
# Experimental method: the activity of the mixture against the adult Tetranychus cinnabarinus (Boisduval) was determined by adopting the potted-seedling spraying method. First, the adult Tetranychus cinnabarinus of uniform size were transferred onto the leaves of kidney bean seedlings at the stage when the first pair of true leaves was fully expanded. After the adult mites had stabilized, the base number was counted. Then, the uniform spraying was performed with the pesticide solution in the order from low to high dose according to the experimental design, with 1.5 mL for each seedling and 3 replicates for each treatment. […]
# (§2) The treated test materials were placed in an observation room, and the temperature, humidity and illumination of the observation room could be adjusted as needed. […] Then, the co-toxicity coefficient of each ratio was calculated using the Sun Y-P method to evaluate the mixing effect, as in Example 1.
# [3] = tested on: Liriomyza sativae Blanchard larvae; test: Joint toxicity of I-72 + cyromazine, Example 55, Table 55; conditions: A = compound I-72, B = cyromazine, kidney bean seedling spraying, counted after blank control larvae pupated, read-out: LC50
# Description: Test target: Liriomyza sativae Blanchard larvae.
# as §1
# Experimental method: first, kidney bean seedlings with the Liriomyza sativae Blanchard larvae (the larvae had just invaded and formed mines) were selected. Spraying treatments were performed in the order from low dosage to high dosage according to the experimental design, with 3 replicates for each treatment. In addition, a blank control was set up.
# as §2, with “needed. After the larvae in the blank control group pupated, the numbers of dead and live insects were then counted.” for “needed.”, “effect (the same” for “effect,”, “1).” for “1.”
# [4] = tested on: 3rd-instar larvae of Chilo suppressalis (Walker); test: Joint toxicity of I-72 + chlorantraniliprole, Example 57, Table 57; conditions: A = compound I-72, B = chlorantraniliprole, rice stem dipping, 72 hours, read-out: LC50
# Description: Test target: 3rd-instar larvae of Chilo suppressalis (Walker).
# as §1
# Experimental method: first, tender rice stems were selected and dipped in the prepared pesticide solution for 10 s in the order from low dosage to high dosage according to the experimental design. After natural air-drying in the shade, they were placed in a 9-cm-diameter Petri dish with filter paper, and uniform and healthy test insects were introduced, with 10 insects for each treatment and 3 replicates for each treatment. In addition, a blank control (CK) was set up.
# as §2, with “needed. The number of dead and live insects was investigated 72 hours later.” for “needed.”
# [5] = tested on: Aphis craccivora nymphs; test: whole plant or invertebrate; conditions: A = compound I-72, B = sulfoxaflor, broad bean seedling spraying, 48 hours, read-out: LC50
# Description: Test target: Aphis craccivora nymphs, a sensitive strain reared indoors.
# as §1
# Experimental method: first, broad bean seedlings with uniform and consistent Aphis craccivora were selected, with about 30-40 insects on each seedling. Then, they were evenly sprayed with the pesticide solution in the order from low dosage to high dosage according to the experimental design, with 1.5 mL of the solution for each leaf and 3 replicates for each treatment. In addition, a blank control was set up.
# The treated test materials were placed in an observation room, and the temperature, humidity and illumination of the observation room could be adjusted as needed. The number of dead and live insects was investigated 48 hours later.
compound,measurement,setting,value
CN(C(=O)c1ccc2c(c1)OC(F)(F)O2)c1cccc(C(=O)Nc2c(Br)cc(C(F)(C(F)(F)F)C(F)(F)F)cc2OC(F)F)c1F [Compound I-72],mortality at 0.05 µg/mL,[1]; single agent 0.05 mg/L,10.4%
same,mortality at 0.1 µg/mL,[1]; single agent 0.1 mg/L,25%
same,mortality at 1 µg/mL,[1]; single agent 1 mg/L,62.5%
same,mortality at 2 µg/mL,[1]; single agent 2 mg/L,72.9%
same,mortality at 5 µg/mL,[1]; single agent 5 mg/L,81.2%
same,LC50,[2],34.1 µg/mL
same,LC50,[3],0.501 µg/mL
same,LC50,[4],1.05 µg/mL
same,LC50,[5],2.52 µg/mL
